Experiments:
[1] = Water solubility of thiophene compound (monomer); format: physicochemical
Protocol: The thiophene compound used as the material is more preferably one having water solubility to such an extent that it is dissolved in water at room temperature or with heating in an amount of at least 0.5 wt %.
The thiophene compound used as a material is more preferably one having water solubility to such an extent that it is soluble in water at room temperature or with heating in an amount of at least 0.5 wt %.

[2] = Storage and handling in air; format: physicochemical

Row | Structure (SMILES) | water solubility ([1]; at room temperature) | storage and handling in air [2] | water solubility ([1]; temperature not stated)
1 | O=S(=O)([O-])CCNCC1COc2cscc2O1.[K+] (stereo not drawn) [Example 1, Potassium N-(2,3-dihydro-thieno[3,4-b][1,4]dioxin-2-ylmethyl)-2-aminoethanesulfonate] | at least 1 wt % | could be stored and handled in air | 
2 | O=S(=O)([O-])CCCCCCC1COc2cscc2O1.[Na+] (stereo not drawn) [Example 4, sodium 6-(2,3-dihydro-thieno[3,4-b][1,4]dioxin-2-yl)-1-hexanesulfonate] | at least 1 wt % | could be stored and handled in air | 
3 | CN(CCS(=O)(=O)[O-])CC1COc2cscc2O1.[Na+] (stereo not drawn) [Example 2, Sodium N-methyl-N-(2,3-dihydro-thieno[3,4-b][1,4]dioxin-2-ylmethyl)-2-aminoethanesulfonate] | at least 1 wt % | could be stored and handled in air | 

Other lines, results leading:

Row | water solubility ([1]; at room temperature) | storage and handling in air [2] | water solubility ([1]; temperature not stated) | Structure (SMILES)
4 | at least 1 wt % | could be stored and handled in air |  | O=S(=O)([O-])CC1COc2cscc2O1.[Na+] (stereo not drawn) [Example 3, Sodium 2,3-dihydro-thieno[3,4-b][1,4]dioxin-2-ylmethanesulfonate]
5 |  | could be stored and handled in air | at least 1 wt % | O=S(=O)([O-])c1ccc(OCC2COc3cscc3O2)cc1.[K+] (stereo not drawn) [Example 17, Potassium O-(2,3-dihydro-thieno[3,4-b][1,4]dioxin-2-ylmethyl)-4-phenolsulfonate]
6 |  | could be stored and handled in air | at least 1% | O=S(=O)([O-])c1ccc(OCC2COc3cscc3O2)cc1.[Na+] (stereo not drawn) [Example 18, sodium O-(2,3-dihydro-thieno[3,4-b][1,4]dioxin-2-ylmethyl)-4-phenolsulfonate]
